Laboratory results taken from US6299906A, “Process for making submicron particles” (Hoffmann-La Roche Inc., priority 1998, dated 2001).
Converted amounts (≈) assume the structure as drawn. Where two headings read alike, the source gives them in different places.

Key:
[1] = Solubility of drug substances in liquid carbon dioxide and dimethyl ether (HPLC or gravimetric); type: physicochemical
Experimental: A comparison of solubilities of a number of pharmaceutical drug substances was performed as follows:
Approximately 3-5 g of the drug product was slightly compressed in a uniaxial press to avoid the formation of a stable suspension. The so compressed powder was placed in a pressure chamber with a sapphire glass (30 ml volume). The temperature of the pressure chamber was controlled by water bath. Then the pressure in the chamber was increased using the corresponding gas and equilibrated for 1-3 hours. After equilibration a 1.0 ml sample was drawn under constant pressure and temperature conditions using a high pressure line with a defined volume. […] The sample container was afterwards rinsed with the same liquid to collect the residues of the substance in the sample container.

[2] = Particle size distribution of Saquinavir by laser diffraction, influence of the pressure in the first container (Example 3); type: physicochemical; settings: DME, Aerosol OT, 40° C.
Description: (§1) The particle size distribution of very small particles of approximately 1 μm is difficult to determine accurately. Two commonly used methods are photon correlation spectroscopy (PCS) and laser diffraction. Photon correlation spectroscopy is commonly used for characterization of submicron suspensions and emulsions. Due to the principle of the measurement, movement of particles, particles larger than 3 to 5 μm cannot be seen with this method. With laser diffraction small particles, >0.1 μm, as well as larger particles, up to 2 mm, can be characterized in parallel. The diffraction of the light is thereby measured at small diffraction angles. For very small particles the method tends to overestimate the particle size due to transmission of light through the particles.
(§2) Formation of fractions of coarse particles was observed especially after clogging of the nozzle, e.g. expansion of a compound dissolved in a compressed gas without modifier. To be able to detect the presence of coarse particles, laser diffraction was chosen to characterize the whole suspension. With its wide dynamic range, laser diffraction allows the detection of particles up to 2 mm that cannot be seen by the PCS method. Since laser diffraction tends to overestimate the particle size (FIGS. 2, 3), all the particle sizes determined by laser diffraction can be considered as too large.
The autoclave was kept at a temperature of 40° C. with a water bath. Then the autoclave was filled with DME up to different pressures and equilibrated for 90 min.
The autoclave was connected to a second autoclave via a heated high pressure line, kept at 25° C., 5 bar. […] The pressure of the first autoclave was kept constant by pumping in additional gas.
The nozzle diameter was 0.1 mm. As commonly known a further decrease of particle size can be obtained by decrease of the nozzle diameter.

[3] = Description: as §1
To be able to detect the presence of coarse particles, laser diffraction was chosen to characterize the whole suspension. With its wide dynamic range, laser diffraction allows the detection of particles up to 2 mm that cannot be seen by the PCS method.
The autoclave was kept at a temperature of 40° C. with a water bath. Then the autoclave was filled with DME up to 200 bar and equilibrated for 90 min.
The autoclave was connected to a second autoclave via a heated high pressure line, kept at 25° C., at 5 bar. […] The pressure of the first autoclave was kept constant by pumping in additional gas.

[4] = Particle size distribution of Saquinavir by Photon Correlation Spectroscopy (FIG. 2); type: physicochemical; settings: batch no. 1051/30, Angle 90
Description: as §1

[5] = Particle size distribution of THL by laser diffraction, influence of the spraying time (Example 2); type: physicochemical; settings: for Dv 0.1 / Dv 0.5 / Dv 0.9: CO2 200 bar, 40° C., Brij 96
Description: as §1, §2
150 g of solid THL and 75 g Brij 96 in a container with two sinter plates was charged into an autoclave having a volume of 6 liter. The autoclave was kept at a temperature of 40° C. with a water bath. Then the autoclave was filled with CO2 up to a pressure of 200 bar and equilibrated for 90 min.
The autoclave was connected to a second autoclave via a heated high pressure line, kept at 40° C. […] The dissolved THL was sprayed into 1.25 liter of an aqueous solution of Brij 96 (0.06%=1 CMC) in this second autoclave. The pressure of the first autoclave was kept constant at 200 bar by pumping in additional gas.
After 90, 150, and 180 minutes of spraying, a sample for particle size distribution was drawn. After 180 min the whole amount of THL/Brij was removed from the first container (≈12% THL in the final suspension).

[6] = liquid co2, organic solvent or mixture, CO2, 45° C./200 bar, read-out: solubility (CO2)
[7] = organic solvent or mixture, dimethyl ether, 45° C./200 bar, read-out: solubility (DME)
[8] = pressure l00 bar (so in the source)
[9] = surfactant Brij 96, DME 200 bar, 40° C.

CC1=C(/C=C/C(C)=C/C=C/C(C)=C\C(=O)O)C(C)(C)CCC1 [Isotretionin]
solubility [1, 6]: 3 mg/mL (≈ 9.99 mM)
solubility [1, 7]: 60 mg/mL (≈ 200 mM)

CC(C)(C)NC(=O)[C@@H]1C[C@@H]2CCCC[C@@H]2CN1C[C@@H](O)[C@H](Cc1ccccc1)NC(=O)[C@H](CC(N)=O)NC(=O)c1ccc2ccccc2n1 [Saquinavir]
solubility [1, 6]: < 1 mg/mL
solubility ([1]; organic solvent or mixture, dimethyl ether, 25° C./100 bar, read-out: solubility (DME)): > 100 mg/mL
Dv 0.1 ([2]; pressure 50 bar): 0.5 μm
Dv 0.5 ([2]; pressure 50 bar): 3.8 μm
Dv 0.9 ([2]; pressure 50 bar): 6.4 μm
Dv 0.1 ([2]; pressure 200 bar): 0.9 μm
Dv 0.5 ([2]; pressure 200 bar): 1.5 μm
Dv 0.9 ([2]; pressure 200 bar): 2.4 μm
Dv 0.1 ([2]; pressure 280 bar): 0.4 μm
Dv 0.5 ([2]; pressure 280 bar): 0.8 μm
Dv 0.9 ([2]; pressure 280 bar): 1.7 μm
Dv 0.1 [2, 8]: 1.0 μm
Dv 0.5 [2, 8]: 2.1 μm
Dv 0.9 [2, 8]: 4.5 μm
Dv 0.1 ([3]; surfactant Aerosol OT, DME): 0.9 μm
Dv 0.5 ([3]; surfactant Aerosol OT, DME): 1.5 μm
Dv 0.9 ([3]; surfactant Aerosol OT, DME): 2.4 μm
Dv 0.1 [3, 9]: 0.7 μm
Dv 0.5 [3, 9]: 1.4 μm
Dv 0.9 [3, 9]: 3.0 μm
Poly [4]: 0.031
ZAve [4]: 254.7

O=C(NCCN1CCOCC1)c1ccc(Cl)cc1 [Moclobemide]
solubility [1, 6]: 3.5 mg/mL (≈ 13 mM)
solubility [1, 7]: 37 mg/mL (≈ 138 mM)

CCCCCCCCCCC[C@@H](C[C@@H]1OC(=O)[C@H]1CCCCCC)OC(=O)[C@H](CC(C)C)NC=O [Orlistat, Tetrahydrolipstatin]
solubility ([1]; organic solvent or mixture, dimethyl ether, 20° C./4.5 bar, read-out: solubility (DME)): 178 mg/mL (≈ 359 mM)
solubility ([1]; organic solvent or mixture, liquid CO2, 30° C./100 bar, read-out: solubility (CO2)): 6 mg/mL (≈ 12.1 mM)
resulting particle size distribution ([5]; over the whole trial (up to 180 min spraying)): kept almost constant over the whole trial
Dv 0.1 ([5]; spraying time 90 min): 0.6 μm
Dv 0.5 ([5]; spraying time 90 min): 1.4 μm
Dv 0.9 ([5]; spraying time 90 min): 2.9 μm
Dv 0.1 ([5]; spraying time 150 min): 0.4 μm
Dv 0.5 ([5]; spraying time 150 min): 1.5 μm
Dv 0.9 ([5]; spraying time 150 min): 3.5 μm
Dv 0.1 ([5]; spraying time 180 min): 0.9 μm
Dv 0.5 ([5]; spraying time 180 min): 2.1 μm
Dv 0.9 ([5]; spraying time 180 min): 4.5 μm

COc1ccccc1Oc1c(NS(=O)(=O)c2ccc(C(C)(C)C)cc2)nc(-c2ncccn2)nc1OCCO [Bosentan]
solubility [1, 6]: < 1 mg/mL
solubility [1, 7]: 90 mg/mL (≈ 163 mM)
